From the NIST ThermoML archive (doi:10.1021/je800330d)
± gives the expanded uncertainty stated by the source.

How the values were obtained:
[1] = mn = molality of the nth substance listed, in mol/kg; settings: 101 kPa, Liquid, Capillary tube (Ostwald / Ubbelohde) method
[2] = xn = mol fraction of the nth substance listed; settings: 101 kPa, Liquid, Capillary tube (Ostwald / Ubbelohde) method
[3] = 101 kPa, Liquid, Capillary tube (Ostwald / Ubbelohde) method

SMILES: O=S(=O)([O-])[O-].O=S(=O)([O-])[O-].O=S(=O)([O-])[O-].[Al+3].[Al+3] [aluminum sulfate] + O
- viscosity ([1]; 298.15 K, m1 = 0.0081): 0.904 ± 0.012 mPa·s
- viscosity ([1]; 298.15 K, m1 = 0.0099): 0.908 ± 0.012 mPa·s
- viscosity ([1]; 298.15 K, m1 = 0.0201): 0.927 ± 0.012 mPa·s
- viscosity ([1]; 298.15 K, m1 = 0.0402): 0.967 ± 0.012 mPa·s
- viscosity ([1]; 298.15 K, m1 = 0.0599): 1.008 ± 0.013 mPa·s
- viscosity ([1]; 298.15 K, m1 = 0.0802): 1.05 ± 0.013 mPa·s
- viscosity ([1]; 298.15 K, m1 = 0.1): 1.093 ± 0.014 mPa·s
- viscosity ([1]; 308.15 K, m1 = 0.0081): 0.729 ± 0.01 mPa·s
- viscosity ([1]; 308.15 K, m1 = 0.0099): 0.732 ± 0.01 mPa·s
- viscosity ([1]; 308.15 K, m1 = 0.0201): 0.747 ± 0.01 mPa·s
- viscosity ([1]; 308.15 K, m1 = 0.0402): 0.777 ± 0.01 mPa·s
- viscosity ([1]; 308.15 K, m1 = 0.0599): 0.807 ± 0.01 mPa·s
- viscosity ([1]; 308.15 K, m1 = 0.0802): 0.839 ± 0.011 mPa·s
- viscosity ([1]; 308.15 K, m1 = 0.1): 0.87 ± 0.011 mPa·s

SMILES: N.N.O=S(=O)(O)O [ammonium sulfate] + O
- viscosity ([1]; 298.15 K, m1 = 0.0081): 0.897 ± 0.012 mPa·s
- viscosity ([1]; 298.15 K, m1 = 0.0099): 0.898 ± 0.012 mPa·s
- viscosity ([1]; 298.15 K, m1 = 0.0201): 0.902 ± 0.012 mPa·s
- viscosity ([1]; 298.15 K, m1 = 0.0402): 0.908 ± 0.012 mPa·s
- viscosity ([1]; 298.15 K, m1 = 0.0599): 0.913 ± 0.012 mPa·s
- viscosity ([1]; 298.15 K, m1 = 0.0802): 0.918 ± 0.012 mPa·s
- viscosity ([1]; 298.15 K, m1 = 0.1): 0.922 ± 0.012 mPa·s
- viscosity ([1]; 308.15 K, m1 = 0.0081): 0.725 ± 0.009 mPa·s
- viscosity ([1]; 308.15 K, m1 = 0.0099): 0.726 ± 0.009 mPa·s
- viscosity ([1]; 308.15 K, m1 = 0.0201): 0.729 ± 0.01 mPa·s
- viscosity ([1]; 308.15 K, m1 = 0.0402): 0.735 ± 0.01 mPa·s
- viscosity ([1]; 308.15 K, m1 = 0.0599): 0.74 ± 0.01 mPa·s
- viscosity ([1]; 308.15 K, m1 = 0.0802): 0.744 ± 0.01 mPa·s
- viscosity ([1]; 308.15 K, m1 = 0.1): 0.748 ± 0.01 mPa·s

SMILES: CN(C)C=O [dimethylformamide] + O
- viscosity ([2]; 298.15 K, x1 = 0.05): 1.002 ± 0.013 mPa·s
- viscosity ([2]; 298.15 K, x1 = 0.1): 1.126 ± 0.014 mPa·s
- viscosity ([2]; 298.15 K, x1 = 0.15): 1.258 ± 0.016 mPa·s
- viscosity ([2]; 298.15 K, x1 = 0.2): 1.391 ± 0.018 mPa·s
- viscosity ([2]; 308.15 K, x1 = 0.05): 0.797 ± 0.01 mPa·s
- viscosity ([2]; 308.15 K, x1 = 0.1): 0.891 ± 0.011 mPa·s
- viscosity ([2]; 308.15 K, x1 = 0.15): 0.984 ± 0.013 mPa·s
- viscosity ([2]; 308.15 K, x1 = 0.2): 1.08 ± 0.014 mPa·s

SMILES: O=S(=O)([O-])[O-].[K+].[K+] [potassium sulfate] + O
- viscosity ([1]; 298.15 K, m1 = 0.0081): 0.895 ± 0.012 mPa·s
- viscosity ([1]; 298.15 K, m1 = 0.0099): 0.896 ± 0.012 mPa·s
- viscosity ([1]; 298.15 K, m1 = 0.0201): 0.899 ± 0.012 mPa·s
- viscosity ([1]; 298.15 K, m1 = 0.0402): 0.905 ± 0.012 mPa·s
- viscosity ([1]; 298.15 K, m1 = 0.0599): 0.909 ± 0.012 mPa·s
- viscosity ([1]; 298.15 K, m1 = 0.0802): 0.914 ± 0.012 mPa·s
- viscosity ([1]; 298.15 K, m1 = 0.1): 0.918 ± 0.012 mPa·s
- viscosity ([1]; 308.15 K, m1 = 0.0081): 0.723 ± 0.009 mPa·s
- viscosity ([1]; 308.15 K, m1 = 0.0099): 0.724 ± 0.009 mPa·s
- viscosity ([1]; 308.15 K, m1 = 0.0201): 0.727 ± 0.009 mPa·s
- viscosity ([1]; 308.15 K, m1 = 0.0402): 0.732 ± 0.01 mPa·s
- viscosity ([1]; 308.15 K, m1 = 0.0599): 0.737 ± 0.01 mPa·s
- viscosity ([1]; 308.15 K, m1 = 0.0802): 0.742 ± 0.01 mPa·s
- viscosity ([1]; 308.15 K, m1 = 0.1): 0.746 ± 0.01 mPa·s

SMILES: O [water]
- viscosity ([3]; 298.15 K): 0.89 ± 0.011 mPa·s
- viscosity ([3]; 308.15 K): 0.719 ± 0.009 mPa·s
